Where two headings read alike, the source gives them in different places.
Legend:
[1] = target: T1, human 5-hydroxytryptamine-2C (h5-HT2C) receptor (Homo sapiens, UniProt P28335); assay: [125I]DOI binding to membranes of CHO cells expressing the h5-HT2C receptor
T1 construct: expressed in transfected cells; host or cells: CHO (Chinese Hamster Ovary) cells; membrane preparation
T1 sequence (P28335 33-458): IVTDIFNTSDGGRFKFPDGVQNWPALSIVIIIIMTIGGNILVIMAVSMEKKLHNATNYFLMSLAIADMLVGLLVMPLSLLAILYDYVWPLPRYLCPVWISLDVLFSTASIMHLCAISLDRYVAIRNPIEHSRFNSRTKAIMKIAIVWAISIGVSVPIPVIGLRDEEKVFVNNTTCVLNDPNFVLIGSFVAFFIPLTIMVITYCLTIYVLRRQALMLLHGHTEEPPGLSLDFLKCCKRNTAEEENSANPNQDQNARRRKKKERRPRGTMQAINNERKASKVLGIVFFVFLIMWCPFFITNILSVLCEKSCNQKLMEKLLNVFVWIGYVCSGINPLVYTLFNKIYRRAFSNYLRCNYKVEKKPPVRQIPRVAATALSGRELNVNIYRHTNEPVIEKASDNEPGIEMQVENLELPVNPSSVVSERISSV

[2] = target: T2, human 5-HT2C receptor (Homo sapiens, UniProt P28335); assay: calcium mobilization (FLIPR) in CHO cells stably expressing the human 5-HT2C receptor; assay type: cell-based
T2 sequence (P28335 33-458): T1 sequence (P28335 33-458)

[3] = read-out: 5-HT2C Binding Ki avg

## NCC1C[S+]([O-])c2cc(F)cc(-c3c(Cl)cccc3Cl)c2O1 (stereo not shown) [Example 2, C-[8-(2,6-Dichloro-phenyl)-6-fluoro-4-oxo-3,4-dihydro-2H-4lambda*4*-benzo[1,4]oxathiin-2-yl]-methylamine]
[1]; [3]
  Ki: 388 nM

## COc1cc(CC(C)N)c(OC)cc1I (stereo not shown) [[125I] DOI, reference compound]
[1]; saturation binding with increasing concentrations of [125I] DOI, read-out: dissociation constant, KD
  Kd: 0.4 nM

## NCC1CS(=O)(=O)c2cc(F)cc(-c3c(Cl)cccc3Cl)c2O1 (stereo not shown) [Example 3, C-[8-(2,6-Dichloro-phenyl)-6-fluoro-4,4-dioxo-3,4-dihydro-2H-4lambda*6*-benzo[1,4]oxathiin-2-yl]-methylamine]
[1]; [3]
  Ki: 11.7 nM

## CSc1ccc2c(c1)C(N1CCN(C)CC1)Cc1ccccc1S2 (stereo not shown) [Methiothepin, reference compound]
[1]; reference compounds, 95% confidence interval in parentheses, [125I]DOI radioligand, CHO cell membranes, read-out: Ki
  Ki: 4.6 nM

## NCC1CSc2cc(F)cc(-c3c(Cl)cccc3Cl)c2O1 (stereo not shown) [Example 1, C-[8-(2,6-Dichloro-phenyl)-6-fluoro-2,3-dihydro-benzo[1,4]oxathiin-2-yl]-methylamine]
[1]; [3]
  Ki: 0.535 nM
[2]; CHO, read-out: 5-HT2C Function EMax (%)
  Emax: 70%
[2]; calcium mobilization, CHO cells, FLIPR, read-out: 5-HT2C Function EC50
  EC50: 356 nM

From patent US20100160411A1, “BENZOXATHIINE AND BENZOXATHIOLE DERIVATIVES AND USES THEREOF” (Wyeth, priority 2006, published 2010)
